This is an account of results in patent publication US20260137698A1, “CYCLIN-DEPENDENT KINASE 7 INHIBITORS” (JOINT STOCK COMPANY «BIOCAD», priority 2022, published 2026).

In one series the target is CDK7/Cyclin H/MNAT1 (Homo sapiens, UniProt P50613). Put plainly: Inhibition of CDK7/Cyclin H/MNAT1 kinase activity (ADP-Glo). The following applies: mean value from several measurements; read-out: IC50 CDK7/Cyclin H/MNAT. The series is classed as biochemical. On the procedure:
(§1) Measurements were carried out in a 5 μl reaction volume using a 384-well plate (Corning Inc., order no. 4513). The analyzed substances were titrated from 50 μM in increments of 4 at 11 concentration points in a normal strength kinase buffer A (Thermo Fisher Scientific Inc, cat. no. PV3189) supplemented with DTT (Sigma, orde. no. 646563-10X.5ML) and prepared with water (Panreac, order no. 701074). Kinase was diluted in an analogous buffer, mixed with test compounds in plate wells and preincubated for 10 minutes at 25° C. Following incubation, a mixture of reaction substrate (CDKtide (SignalChem, order no. C06-58) or Histone H1 (SignalChem, order no. H10-54N) or PDKtide (SignalChem, order no. P10-58) and ATP (SignalChem, order no. V915B) prepared on a normal strength kinase buffer A was added. 1% solution of dimethyl sulfoxide (DMSO) (Sigma-Aldrich, order no. D2438) in the reaction volume was used as a negative control. The final concentrations of all reaction components are shown in Table 5. The plate was centrifuged at 400 rcf (Eppendorf, 5804 R) for 1 minute and incubated for 40-60 minutes at 25° C. The amount of ATP consumed in the kinase reaction was then measured using the ADP-Glo™ detection system. Luminescence signal was measured using Spark 20M tablet multifunction reader (Tecan Group Ltd, Switzerland). IC50 value was calculated using Magellan 7.2 (Tecan Group Ltd, Switzerland) by approximating experimental points by four-parameter model with the optimization by Levenberg-Marquardt:
(§2) [formula] • where A is the upper asymptote; D is the lower asymptote; C is IC50, half-maximal inhibitory concentration of kinase, nM; B is the curvature (slope).
On the technique in general: ADP-Glo first removes unused ATP, then detects ADP through luciferase.

The next series deals with CDK2/Cyclin A (Homo sapiens, UniProt P24941). As to the kind of experiment: Inhibition of CDK2/Cyclin A kinase activity (ADP-Glo). The format is biochemical. Particulars: mean value from several measurements; read-out: IC50 CDK2/Cyclin A. On the procedure: as §1, §2
The next series concerns the target CDK9/Cyclin K (Homo sapiens, UniProt P50750). As to the kind of experiment: Inhibition of CDK9/Cyclin K kinase activity (ADP-Glo). The following applies: mean value from several measurements; read-out: IC50 CDK9/Cyclin K. The format is biochemical. On the procedure:
as §1, §2

Series [1] is described as follows: General cytotoxicity on primary differentiated HepaRG cells (72 h). The series is classed as cell-based. Particulars: human, general toxicity, mean value from several measurements. The text has this: General cytotoxicity of CDK7 inhibitors according to the present invention was investigated using primary differentiated HepaRG cells (Biopredic Int, order no. HPR101). A week before the measurement, the cells were thawed and maintained in Basal hepatic cell medium (Biopredic Int, order no. MIL700079) supplemented with HepaRG maintenance/metabolism medium supplement with antibiotics (Biopredic Int, order no. ADD620C). The medium in vials with cells was changed every 2-3 days. The night before the test, the cells were plated in wells of 96-well plates (Corning Inc., order no. 3599) at 25×10^3 cells in 100 μl of medium per well. The next day, test compounds were introduced into plate wells with cells, untitrated at a concentration ranging from 200 μM to 0.2 nM, and incubated for 72 hours. Cell viability was assessed as described above.

Series [2] in a line: Passive membrane permeability through PAMPA artificial membrane, pH 7.4. The format is in vitro ADME. The following applies: pH 7.4, 10 μmol, 20 hours at room temperature, mean of multiple measurements, read-out: PAMPA passive permeability Pe. The protocol:
Passive membrane permeability of the compounds described in the present invention was determined using the PAMPA (parallel artificial membrane permeability assay) model at pH 7.4.
We used a 96-well plate (Corning® BioCoat® Pre-coated PAMPA Plate System, order no. 353015), composed of acceptor and donor parts with cell membrane-modeling PVDF filter pre-impregnated with a lecithin-phospholipid bilayer. The substance (at a concentration of 10 μmol) in a 0.01 M phosphate buffer with pH 7.4 was introduced into a donor well of the plate, and pure buffer was introduced into an acceptor well; afterwards, the both parts were combined and incubated for 20 hours at room temperature so that the compound was redistributed between the two wells and the membrane. Verapamil (USP, USA, order no. 1711202) and propranolol (MCE LLC, USA, cat. no. HY-B0573/CS-2680) were used as control compounds with high and medium permeability. Samples were analyzed by reversed-phase HPLC with UV detection (Agilent 1260 chromatograph with UV detector) by determining their peak areas in the donor and acceptor wells.
Permeability (Pe, cm/s) and retention factor (R, %) in the lipid bilayer were calculated using the formula:
[formula] [formula] • Co is donor-well concentration of the substance at the initial moment of time t (μM); • CA (t) is acceptor-well concentration of the substance at time t (μM); • Vd is donor-well volume (0.3 ml); • Va is acceptor-well volume (0.15 ml).
[formula] • A is filter area (0.3 cm^2); • t is incubation time (72000 s);

In series [3] the test system is MDA-MB-468 (triple negative breast cancer). As to the kind of experiment: Antiproliferative assay on MDA-MB-468 cells (AlamarBlue, 96 h). The series is classed as cell-based. The following applies: Homo sapiens, mean value from several measurements. The protocol: The antiproliferative activity of CDK7 inhibitors according to the present invention was evaluated in a cell test using continuous cell cultures: MDA-MB-468 (triple negative breast cancer, ATCC® HTB-132™) and NCl-H82 (small cell lung cancer, ATCC® HTB-175™) using a viable AlamarBlue dye (Thermo Fisher Scientific Inc, order no. DAL1100). The cells were grown in DMEM (PanEco, order no. C330π) and RPMI-1640 (PanEco, order no. C330π), respectively. The basal growth medium was enriched with L-glutamine at a concentration of 2 mM (PanEco, order no. Φ032) and 10% fetal bovine serum (Gibco, order no. 16140-071). The night before measurement, MDA-MB-468 adherent cells were detached from plastic with a solution of trypsin-EDTA (PanEco, order no. Π039π), the solution was then inactivated by a DMEM complete medium, centrifuged at 1000 RPM (Eppendorf, 5804 R), a suspension of cells was prepared in a DMEM complete medium, introduced into 96-well culture plates (Corning Inc, order no. 3599) at 8×10^3 cells in 100 μl of medium per well. The next day, test compounds were dissolved in DMSO and diluted with a DMEM complete medium to a final concentration ranging from 50 μM to 10 pM. Diluted compounds in a volume of 50 μl were introduced into the plate wells with cells in triplicates (the final concentration of DMSO was no more than 1%) and incubated at 37° C. in an incubator with 5% CO2 for 96 hours. NCl-H82 suspension cell line was prepared on the day of the analysis. 10×10^3 cells in 100 μl of an RPMI-1640 complete medium were added to each well of a 96-well plate. The procedure for sample dilution is as described above. Cells with test compounds were incubated at 37° C. in an incubator with 5% CO2 for 120 hours. Following incubation, […] of AlamarBlue reagent (Thermo Fisher Scientific Inc., order no. DAL1100) was added to the wells, the contents of the plates were stirred in an orbital shaker (Biosan, Latvia), then further incubated for 5.5-6 hours at 37° C. in an incubator with 5% CO2. The number of viable cells was detected using the Infinite M200Pro microplate spectrophotometer (Tecan Group Ltd, Switzerland) by way of measuring a fluorescent signal at an excitation wavelength (λEx) of 540 nm and an emission wavelength (λEm) of 590 nm.
IC50 value was calculated using the Magellan software (Tecan Group Ltd, Switzerland) by approximating experimental points by four-parameter model with the optimization by Levenberg-Marquardt: […]
On the technique in general: Alamar Blue is a resazurin reagent that responds to reducing activity.

Chain of CDK7/Cyclin H/MNAT1 (P50613 whole entry): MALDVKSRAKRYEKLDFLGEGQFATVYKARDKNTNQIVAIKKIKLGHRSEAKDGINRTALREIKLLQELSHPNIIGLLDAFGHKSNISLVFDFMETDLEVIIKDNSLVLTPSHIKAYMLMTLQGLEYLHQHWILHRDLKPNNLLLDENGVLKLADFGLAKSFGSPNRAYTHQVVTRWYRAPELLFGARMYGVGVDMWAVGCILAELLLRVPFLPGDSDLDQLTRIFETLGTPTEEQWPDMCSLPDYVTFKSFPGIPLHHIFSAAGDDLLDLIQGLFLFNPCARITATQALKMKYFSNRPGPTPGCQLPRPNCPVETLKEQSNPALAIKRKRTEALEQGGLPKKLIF
Chain of CDK7/Cyclin H/MNAT1 (P51946 whole entry partner): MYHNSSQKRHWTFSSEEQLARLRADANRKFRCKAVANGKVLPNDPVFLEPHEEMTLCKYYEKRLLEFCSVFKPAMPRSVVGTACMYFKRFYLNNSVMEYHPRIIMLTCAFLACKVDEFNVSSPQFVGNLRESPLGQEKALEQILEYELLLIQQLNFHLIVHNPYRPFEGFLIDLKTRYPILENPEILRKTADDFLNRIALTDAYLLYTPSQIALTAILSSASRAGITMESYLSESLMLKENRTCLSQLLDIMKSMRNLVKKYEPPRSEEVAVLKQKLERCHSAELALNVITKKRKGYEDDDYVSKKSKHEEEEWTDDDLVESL
Chain of CDK7/Cyclin H/MNAT1 (P51948 whole entry partner): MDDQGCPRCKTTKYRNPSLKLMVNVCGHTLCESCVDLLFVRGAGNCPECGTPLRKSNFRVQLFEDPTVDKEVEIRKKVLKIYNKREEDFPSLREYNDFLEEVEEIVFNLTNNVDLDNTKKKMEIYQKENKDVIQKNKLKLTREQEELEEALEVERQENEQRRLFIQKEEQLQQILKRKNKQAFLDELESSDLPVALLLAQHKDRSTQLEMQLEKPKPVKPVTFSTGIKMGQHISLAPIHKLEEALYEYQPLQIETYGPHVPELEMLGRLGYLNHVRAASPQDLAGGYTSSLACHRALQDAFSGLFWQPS
Chain of CDK9/Cyclin K (P50750 whole entry): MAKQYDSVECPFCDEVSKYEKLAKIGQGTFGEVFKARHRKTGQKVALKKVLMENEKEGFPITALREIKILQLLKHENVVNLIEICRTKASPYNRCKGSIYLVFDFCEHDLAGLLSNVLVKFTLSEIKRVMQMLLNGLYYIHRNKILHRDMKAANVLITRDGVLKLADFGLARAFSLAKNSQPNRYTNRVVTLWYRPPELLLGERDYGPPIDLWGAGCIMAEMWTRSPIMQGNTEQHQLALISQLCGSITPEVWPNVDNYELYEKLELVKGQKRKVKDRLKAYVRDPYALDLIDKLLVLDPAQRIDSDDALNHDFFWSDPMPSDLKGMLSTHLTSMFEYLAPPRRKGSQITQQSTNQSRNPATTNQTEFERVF
Chain of CDK9/Cyclin K (O75909 whole entry partner): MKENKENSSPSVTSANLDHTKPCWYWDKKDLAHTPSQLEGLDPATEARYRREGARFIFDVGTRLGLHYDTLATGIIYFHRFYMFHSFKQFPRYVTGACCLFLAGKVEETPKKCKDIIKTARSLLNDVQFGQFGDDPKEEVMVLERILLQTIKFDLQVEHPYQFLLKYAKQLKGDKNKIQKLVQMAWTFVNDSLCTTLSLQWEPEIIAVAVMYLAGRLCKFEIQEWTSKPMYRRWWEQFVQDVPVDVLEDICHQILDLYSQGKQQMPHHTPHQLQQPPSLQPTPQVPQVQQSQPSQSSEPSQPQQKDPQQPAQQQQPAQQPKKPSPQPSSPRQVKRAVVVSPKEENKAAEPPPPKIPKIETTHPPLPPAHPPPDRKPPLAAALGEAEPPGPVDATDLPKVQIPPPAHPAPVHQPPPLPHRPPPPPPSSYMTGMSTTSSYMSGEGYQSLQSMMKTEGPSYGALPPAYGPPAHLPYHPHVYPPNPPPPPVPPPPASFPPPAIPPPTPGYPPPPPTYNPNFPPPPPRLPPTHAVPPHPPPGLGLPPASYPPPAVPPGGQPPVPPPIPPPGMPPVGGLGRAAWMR

`CN1CCC(=O)c2c(-c3nc(N[C@H]4CCCNC4)ncc3C(F)(F)F)c[nH]c2C1=O` [CDK7_1021, 7-methyl-3-(2-{[(3S)-piperidin-3-yl]amino}-5-(trifluoromethyl)py-rimidin-4-yl)-1H,4H,5H,6H,7H, 8H-pyrrolo[2,3-c]azepine-4,8-dione]: the figures for the IC50 at CDK7/Cyclin H/MNAT1, on CDK2/Cyclin A and on CDK9/Cyclin K were 5 to 50 nM, 5 to 50 nM and over 200 nM, respectively. This compound returned a cytotoxic concentration (CC50) at 72 h in series [1] of over 2000 nM. In addition, in series [2], the Papp at 20 h, 10 μmol is under 1 ×10⁻⁶ cm/s.

As for `FC(F)(F)c1cnc(N[C@H]2CCCNC2)nc1-n1nnc2ccccc21` [CDK7_811, 4-(1H-1,2,3-benzotriazol-1-yl)-N-[(3S)-piperidin-3-yl]-5-(trifluoromethyl)py-rimidin-2-amine], the values for the IC50 (at CDK7/Cyclin H/MNAT1; on CDK2/Cyclin A; in series [3]) were 5 to 50 nM, over 200 nM and 100 to 1000 nM, respectively. The same compound registered a cytotoxic concentration (CC50) at 72 h in series [1] of 500 to 2000 nM. For the same compound, in series [2], the Papp at 20 h, 10 μmol was 5 to 10 ×10⁻⁶ cm/s.

`O=c1c2[nH]cc(-c3nc(N[C@H]4CCCNC4)ncc3C(F)(F)F)c2ccn1C1CCOCC1` [CDK7_1121] registered a CC50 at 72 h in series [1] of over 2000 nM. Besides, the Papp at 20 h, 10 μmol in series [2] is under 1 ×10⁻⁶ cm/s.

`Cc1ccc(P(C)(C)=O)c(Nc2nc(N[C@H]3CCCNC3)ncc2C(F)(F)F)c1` [CDK7_903, N4-[2-(dimethylphos-phoryl)-5-methylphenyl]-N2-[(3S)-piperidin-3-yl]-5-(trifluoromethyl) pyrimidine-2,4-diamine]: the IC50 is 5 to 50 nM on CDK7/Cyclin H/MNAT1, over 200 nM on CDK2/Cyclin A and over 200 nM at CDK9/Cyclin K. For the same compound, in series [2], the Papp at 20 h, 10 μmol was under 1 ×10⁻⁶ cm/s.

As for `O=C(NC1CCC(O)CC1)c1cc(-c2nc(N[C@H]3CCCNC3)ncc2C(F)(F)F)c[nH]1` (stereo partly drawn) [CDK7_851, N-(4-hydroxycyclo-hexyl)-4-(2-{[(3S)-piperidin-3-yl]amino}-5-(trifluoromethyl)pyrimidin-4-yl)-1H-pyrrole-2-carboxamide], the IC50 on CDK7/Cyclin H/MNAT1 is 5 to 50 nM; at CDK2/Cyclin A, over 200 nM; at CDK9/Cyclin K, 50 to 200 nM; in series [3] it was over 1000 nM. In series [1], this compound returned a CC50 at 72 h of over 2000 nM.

With `CN1CCN(C(=O)c2cc(-c3nc(N[C@H]4CCCNC4)ncc3C(F)(F)F)c[nH]2)CC1` [CDK7_539, 4-[5-(4-methylpiperazine-1-carbonyl)-1H-pyrrol-3-yl]-N-[(3S)-piperidin-3-yl]-5-(trifluoromethyl) pyrimidin-2-amine], the IC50 on CDK7/Cyclin H/MNAT1 is 5 to 50 nM; at CDK2/Cyclin A it was over 200 nM; on CDK9/Cyclin K it was 50 to 200 nM; in series [3] it was 100 to 1000 nM. Also, in series [1], the CC50 at 72 h is over 2000 nM.

Consider `O=C(NC1CCOCC1)c1cc(-c2nc(N[C@H]3CCCNC3)ncc2C(F)(F)F)c[nH]1` [CDK7_850, N-(oxan-4-yl)-4-(2-{[(3S)-piperidin-3-yl]amino}-5-(trifluoromethyl)pyrimidin-4-yl)-1H-pyrrole-2-carboxamide], for which the IC50 was 5 to 50 nM at CDK7/Cyclin H/MNAT1, over 200 nM on CDK2/Cyclin A, 50 to 200 nM at CDK9/Cyclin K and 100 to 1000 nM in series [3]. The compound also returned a CC50 at 72 h in series [1] of over 2000 nM.

For the compound `O=C(Nc1ccncc1)c1cc(-c2nc(N[C@H]3CCCNC3)ncc2C(F)(F)F)c[nH]1` [CDK7_836, 4-(2-{[(3S)-piperidin-3-yl]amino}-5-(trifluoromethyl)pyrimidin-4-yl)-N-(pyridin-4-yl)-1H-pyrrole-2-carboxamide], the IC50 on CDK7/Cyclin H/MNAT1 is 5 to 50 nM; on CDK2/Cyclin A it was over 200 nM; at CDK9/Cyclin K, 50 to 200 nM; in series [3], 100 to 1000 nM. In series [1], this compound displayed a CC50 at 72 h of 500 to 2000 nM.

As for `O=C(Nc1nccs1)c1cc(-c2nc(N[C@H]3CCCNC3)ncc2C(F)(F)F)c[nH]1` [CDK7_834, 4-(2-{[(3S)-piperidin-3-yl]amino}-5-(trifluoromethyl)pyrimidin-4-yl)-1N-(1,3-thiazol-2-yl)-1H-pyrrole-2-carboxamide], the IC50 is 5 to 50 nM at CDK7/Cyclin H/MNAT1, over 200 nM on CDK2/Cyclin A, 5 to 50 nM on CDK9/Cyclin K and 10 to 100 nM in series [3]. The CC50 at 72 h in series [1] lay within 100 to 500 nM.

For the compound `O=C(Nc1ccccc1)c1cc(-c2nc(N[C@H]3CCCNC3)ncc2C(F)(F)F)c[nH]1` [CDK7_538, N-phenyl-4-(2-{[(3S)-piperidin-3-yl]amino}-5-(trifluoromethyl)pyrimidin-4-yl)-1H-pyrrole-2-carboxamide], the IC50 is 5 to 50 nM on CDK7/Cyclin H/MNAT1, over 200 nM at CDK2/Cyclin A, 50 to 200 nM at CDK9/Cyclin K and 100 to 1000 nM in series [3]. The same compound registered a CC50 at 72 h in series [1] of 500 to 2000 nM.

As to `O=C(NCC(F)(F)F)c1cc(-c2nc(N[C@H]3CCCNC3)ncc2C(F)(F)F)c[nH]1` [CDK7_847, 4-(2-{[(3S)-piperidin-3-yl]amino}-5-(trifluoromethyl)pyrimidin-4-yl)-N-(2,2,2-trifluoroethyl)-1H-pyrrole-2-carboxamide], the IC50 on CDK7/Cyclin H/MNAT1 is 5 to 50 nM; on CDK2/Cyclin A, over 200 nM; at CDK9/Cyclin K, 5 to 50 nM; in series [3] it was 10 to 100 nM. This compound came in with a CC50 at 72 h in series [1] of 100 to 500 nM.

Usually CC50 stands for the concentration giving 50% cytotoxicity. Read a low CC50 as greater toxicity to the cells.
